{
  "source": "patent CN111004186A",
  "about": "“一种小分子荧光探针及其制备方法与应用” (Wenzhou Medical University, priority 2019, dated 2020)",
  "key": {"[1]": {"test": "UV-vis absorption spectra of the probe on addition of ClO-", "details": "aqueous solution, probe 10 μM and 5 μM, ClO- added"}, "[2]": {"test": "Fluorescence titration of the probe with ClO-", "details": "excitation 440 nm"}, "[3]": {"tested_on": "MRC-5 cells (人胚肺细胞(MRC-5))", "test": "Fluorescence bioimaging of ClO- in MRC-5 cells", "assay_type": "cell-based, human"}, "[4]": {"test": "Fluorescence selectivity of the probe for ClO- over other ions/species"}, "zebrafish (斑马鱼)": {"tested_on": "zebrafish (斑马鱼)", "test": "Fluorescence bioimaging of ClO- in zebrafish", "assay_type": "in vivo"}},
  "data": [
    {"smiles": "O=C1NC(=S)NC(=O)C1=Cc1ccc2cc(O)ccc2c1", "note": "[小分子探针]", "values": [
      {"measurement": "absorption band at 440 nm on addition of ClO-", "setting": "[1]", "value": "逐渐减少"},
      {"measurement": "new absorption peak after addition of ClO-", "setting": "[1]", "value": 515, "unit": "nm"},
      {"measurement": "maximum emission", "setting": "[2]; probe 5 μM in water with ClO-", "value": 535, "unit": "nm"},
      {"measurement": "fluorescence intensity as a function of ClO- concentration", "setting": "[2]; probe 5 μM in water, 400-700 nm", "value": "随ClO-浓度增加而增强"},
      {"measurement": "fluorescence signal in cells", "setting": "[3]; MRC-5 cells incubated with free probe, without added ClO-", "value": "观察到可见荧光信号"},
      {"measurement": "fluorescence intensity in the red channel", "setting": "[3]; MRC-5 cells incubated with probe 20 min, then ClO- 6.0 μM, observed immediately", "value": "显着荧光强度"},
      {"measurement": "fluorescence change with anions/species other than ClO-", "setting": "[4]; probe 2 μM in EtOH-H2O (v/v=1:10), 1.0 eq SO3 2-, NO, 1O2, ·OH, PBO·, TBHP, DBTP, Cys, GSH, H2O2", "value": "没有产生明显变化"},
      {"measurement": "fluorescence intensity after addition of ClO-", "setting": "[4]; probe 2 μM in EtOH-H2O (v/v=1:10), ClO- 1.0 eq", "value": "明显"},
      {"measurement": "selectivity for ClO-", "setting": "[4]; probe 2 μM in EtOH-H2O (v/v=1:10), anions 1.0 eq", "value": "高选择性"},
      {"measurement": "fluorescence change with other ions", "setting": "[4]; probe mixed with other ions (not hypochlorite)", "value": "荧光基本上不发生变化"},
      {"measurement": "fluorescence intensity on reaction with hypochlorite ion", "setting": "[4]; probe with hypochlorite ion", "value": "荧光强度变强"},
      {"measurement": "red fluorescence in head and abdomen", "setting": "zebrafish (斑马鱼); 5-day-old zebrafish pretreated with probe, washed three times, then ClO- 6.0 μM", "value": "显着的红色荧光"},
      {"measurement": "red fluorescence in the abdomen", "setting": "zebrafish (斑马鱼); 5-day-old zebrafish, free probe 2.0 μM, 20 min, without added ClO-", "value": "弱而可见的 红色荧光"},
      {"measurement": "tissue penetration ability", "setting": "zebrafish (斑马鱼); zebrafish", "value": "高组织穿透能力"}
    ]}
  ]
}
